Laboratory results taken from patent US9695155B2, “Herbicidal substituted pyrimidinyloxy benzene compounds” (E. I. DU PONT DE NEMOURS AND COMPANY, priority 2013, dated 2017).

How the values were obtained:
Assay in all cases: Test E preemergence
[1] = tested on: surinam grass; format: in vivo, Brachiaria decumbens; settings: for Surinam Grass plant response rating: scale 0 to 100 (0 no effect, 100 complete control)
From the text: (§1) Seeds of plant species selected from corn (Zea mays), soybean (Glycine max), velvetleaf (Abutilon theophrasti), lambsquarters (Chenopodium album), wild poinsettia (Euphorbia heterophylla), palmer pigweed (Amaranthus palmeri), waterhemp (common waterhemp, Amaranthus rudis), surinam grass (Brachiaria decumbens), large (Lg) crabgrass (Digitaria sanguinalis), Brazilian crabgrass (Digitaria horizontalis), fall panicum (Panicum dichotomiflorum), giant foxtail (Setaria faberii), green foxtail (Setaria viridis), goosegrass (Eleusine indica), johnsongrass (Sorghum halepense), ragweed (common ragweed, Ambrosia elatior), barnyardgrass (Echinochloa crus-galli), sandbur (southern sandbur, Cenchrus echinatus), arrowleaf sida (Sida rhombifolia), Italian ryegrass (Lolium multiflorum), dayflower (Virginia (VA) dayflower, Commelina virginica), field bindweed (Convolvulus arvensis), morningglory (Ipomoea coccinea), nightshade (eastern black nightshade, Solanum ptycanthum), kochia (Kochia scoparia), yellow nutsedge (Cyperus esculentus), cocklebur (common cocklebur, Xanthium strumarium), smartweed (ladysthumb smartweed, and hairy beggarticks (Bidens pilosa), were planted into a silt loam soil and treated preemergence with test chemicals formulated in a non-phytotoxic solvent mixture which included a surfactant.
(§2) At the same time, plants from these crop and weed species and also horseweed (Canada horseweed, Conyza canadensis), waterhemp_RES1, (ALS & Triazine resistant common waterhemp, Amaranthus rudis), and waterhemp_RES2, (ALS & HPPD resistant common waterhemp, Amaranthus rudis) were planted in pots containing Redi-Earth® planting medium (Scotts Company, 14111 Scottslawn Road, Marysville, Ohio 43041) comprising spaghnum peat moss, vermiculite, wetting agent and starter nutrients were treated with postemergence applications of test chemicals formulated in the same manner. Plants ranged in height from 2 to 18 cm for postemergence treatments (1- to 4-leaf stage). Treated plants and controls were maintained in a greenhouse for 14 to 21 days, after which time all species were compared to controls and visually evaluated. Plant response ratings, summarized in Table E, are based on a scale of 0 to 100 where 0 is no effect and 100 is complete control. A dash (-) response means no test result.

[2] = tested on: yellow nutsedge; format: in vivo, Cyperus esculentus; settings: for Nutsedge, Yellow plant response rating: scale 0 to 100 (0 no effect, 100 complete control)
Procedure, shortened: (§3)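 Compound in a non-phytotoxic solvent mixture with surfactant was applied preemergence to seeds in silt loam soil, or postemergence to plants 2 to 18 cm tall grown in peat-based potting medium. Plants were kept in a greenhouse for 14 to 21 days, then rated visually against untreated controls on a 0 (no effect) to 100 (complete control) scale.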

[3] = tested on: soybean; format: in vivo, Glycine max; settings: for Soybean plant response rating: scale 0 to 100 (0 no effect, 100 complete control)
From the text: as §1, §2

[4] = tested on: sandbur; format: in vivo, Cenchrus echinatus; settings: for Sandbur plant response rating: scale 0 to 100 (0 no effect, 100 complete control)
Procedure, shortened: as §3

[5] = tested on: giant foxtail; format: in vivo, Setaria faberii; settings: for Foxtail, Giant plant response rating: scale 0 to 100 (0 no effect, 100 complete control)
From the text: as §1, §2

[6] = tested on: palmer pigweed; format: in vivo, Amaranthus palmeri; settings: for Pigweed, Palmer plant response rating: scale 0 to 100 (0 no effect, 100 complete control)
From the text: as §1, §2

[7] = tested on: kochia; format: in vivo, Kochia scoparia; settings: for Kochia plant response rating: scale 0 to 100 (0 no effect, 100 complete control)
Procedure, shortened: as §3

[8] = tested on: Italian ryegrass; format: in vivo, Lolium multiflorum; settings: for Ryegrass, Italian plant response rating: scale 0 to 100 (0 no effect, 100 complete control)
From the text: as §1, §2

[9] = 8 g ai/ha, scale 0 to 100, 0 is no effect, 100 is complete control
[10] = 125 g ai/ha, scale 0 to 100, 0 no effect, 100 complete control
[11] = 250 g ai/ha, scale 0 to 100, 0 no effect, 100 complete control

SMILES	Surinam Grass plant response rating ([1]; 16 g ai/ha)	Surinam Grass plant response rating ([1]; 31 g ai/ha)	Surinam Grass plant response rating ([1]; 62 g ai/ha)	Plant response rating, Surinam Grass [1, 10]	Nutsedge, Yellow plant response rating ([2]; 16 g ai/ha)	Nutsedge, Yellow plant response rating ([2]; 31 g ai/ha)	Nutsedge, Yellow plant response rating ([2]; 62 g ai/ha)	Plant response rating, Nutsedge, Yellow [2, 10]	Soybean plant response rating ([3]; 16 g ai/ha)	Soybean plant response rating ([3]; 31 g ai/ha)	Soybean plant response rating ([3]; 62 g ai/ha)	Plant response rating, Soybean [3, 10]	Sandbur plant response rating ([4]; 16 g ai/ha)	Sandbur plant response rating ([4]; 31 g ai/ha)	Sandbur plant response rating ([4]; 62 g ai/ha)	Plant response rating, Sandbur [4, 10]	Foxtail, Giant plant response rating ([5]; 16 g ai/ha)	Foxtail, Giant plant response rating ([5]; 31 g ai/ha)	Foxtail, Giant plant response rating ([5]; 62 g ai/ha)	Plant response rating, Foxtail, Giant [5, 10]	other results
Clc1cnc(Oc2ccccc2-n2cc(Br)cn2)nc1 [Compound 7, 2-[2-(4-bromo-1H-pyrazol-1-yl)phenoxy]-5-chloropyrimidine]	0	0	10	35	0	0	0	0	0	0	40	50	0	0	0	35	20	20	40	90	Plant response rating, Surinam Grass [1, 9]: 0; Plant response rating, Nutsedge, Yellow [2, 9]: 0; Plant response rating, Soybean [3, 9]: 0; Plant response rating, Sandbur [4, 9]: 0; Plant response rating, Foxtail, Giant [5, 9]: 15; Plant response rating, Pigweed, Palmer [6, 9]: 0; Pigweed, Palmer plant response rating ([6]; 16 g ai/ha): 95; Pigweed, Palmer plant response rating ([6]; 31 g ai/ha): 85; Pigweed, Palmer plant response rating ([6]; 62 g ai/ha): 100; Plant response rating, Pigweed, Palmer [6, 10]: 100; Plant response rating, Kochia [7, 9]: 0; Kochia plant response rating ([7]; 16 g ai/ha): 0; Kochia plant response rating ([7]; 31 g ai/ha): 0; Kochia plant response rating ([7]; 62 g ai/ha): 50; Plant response rating, Kochia [7, 10]: 95; Plant response rating, Ryegrass, Italian [8, 9]: 0; Ryegrass, Italian plant response rating ([8]; 16 g ai/ha): 0; Ryegrass, Italian plant response rating ([8]; 31 g ai/ha): 0; Ryegrass, Italian plant response rating ([8]; 62 g ai/ha): 0; Plant response rating, Ryegrass, Italian [8, 10]: 20
N#Cc1cccc(Oc2ncc(Cl)cn2)c1-n1cc(C(F)(F)F)cn1 [Compound 58, 3-[(5-chloro-2-pyrimidinyl)oxy]-2-[4-(trifluoromethyl)-1H-pyrazol-1-yl]benzonitrile]	0	0	25	65	0	5	25	60	0	0	60	75	0	20	75	90	75	100	100	100	Plant response rating, Surinam Grass [1, 11]: 90; Plant response rating, Nutsedge, Yellow [2, 11]: 80; Plant response rating, Soybean [3, 11]: 95; Plant response rating, Sandbur [4, 11]: 95; Plant response rating, Foxtail, Giant [5, 11]: 100; Pigweed, Palmer plant response rating ([6]; 16 g ai/ha): 100; Pigweed, Palmer plant response rating ([6]; 31 g ai/ha): 100; Pigweed, Palmer plant response rating ([6]; 62 g ai/ha): 100; Plant response rating, Pigweed, Palmer [6, 10]: 100; Plant response rating, Pigweed, Palmer [6, 11]: 100; Kochia plant response rating ([7]; 16 g ai/ha): 35; Kochia plant response rating ([7]; 31 g ai/ha): 100; Kochia plant response rating ([7]; 62 g ai/ha): 100; Plant response rating, Kochia [7, 10]: 100; Plant response rating, Kochia [7, 11]: 100; Ryegrass, Italian plant response rating ([8]; 16 g ai/ha): 30; Ryegrass, Italian plant response rating ([8]; 31 g ai/ha): 35; Ryegrass, Italian plant response rating ([8]; 62 g ai/ha): 75; Plant response rating, Ryegrass, Italian [8, 10]: 98; Plant response rating, Ryegrass, Italian [8, 11]: 98
N#Cc1cccc(Oc2ncc(F)cn2)c1-n1cc(Cl)cn1 [Compound 73]	0	0	5	20	0	0	50	40	15	25	25	70	10	20	20	30	0	20	50	95	Plant response rating, Surinam Grass [1, 11]: 35; Plant response rating, Nutsedge, Yellow [2, 11]: 30; Plant response rating, Soybean [3, 11]: 80; Plant response rating, Sandbur [4, 11]: 35; Plant response rating, Foxtail, Giant [5, 11]: 100; Pigweed, Palmer plant response rating ([6]; 16 g ai/ha): 0; Pigweed, Palmer plant response rating ([6]; 31 g ai/ha): 75; Pigweed, Palmer plant response rating ([6]; 62 g ai/ha): 100; Plant response rating, Pigweed, Palmer [6, 10]: 100; Plant response rating, Pigweed, Palmer [6, 11]: 100; Kochia plant response rating ([7]; 16 g ai/ha): 5; Kochia plant response rating ([7]; 31 g ai/ha): 75; Kochia plant response rating ([7]; 62 g ai/ha): 98; Plant response rating, Kochia [7, 10]: 98; Plant response rating, Kochia [7, 11]: 100; Ryegrass, Italian plant response rating ([8]; 16 g ai/ha): 0; Ryegrass, Italian plant response rating ([8]; 31 g ai/ha): 20; Ryegrass, Italian plant response rating ([8]; 62 g ai/ha): 35; Plant response rating, Ryegrass, Italian [8, 10]: 35; Plant response rating, Ryegrass, Italian [8, 11]: 65
N#Cc1cnn(-c2c(C#N)cccc2Oc2ncc(F)cn2)c1 [Compound 111]	0	0	0	25	0	0	0	15	0	20	40	70	0	0	0	0	0	0	70	100	Pigweed, Palmer plant response rating ([6]; 16 g ai/ha): 10; Pigweed, Palmer plant response rating ([6]; 31 g ai/ha): 20; Pigweed, Palmer plant response rating ([6]; 62 g ai/ha): 100; Plant response rating, Pigweed, Palmer [6, 10]: 100; Kochia plant response rating ([7]; 16 g ai/ha): 0; Kochia plant response rating ([7]; 31 g ai/ha): 10; Kochia plant response rating ([7]; 62 g ai/ha): 95; Plant response rating, Kochia [7, 10]: 95; Ryegrass, Italian plant response rating ([8]; 16 g ai/ha): 0; Ryegrass, Italian plant response rating ([8]; 31 g ai/ha): 0; Ryegrass, Italian plant response rating ([8]; 62 g ai/ha): 0; Plant response rating, Ryegrass, Italian [8, 10]: 20
